From patent publication US7605175B2, “Inhibitors of cyclin-dependent kinases, compositions and uses related thereto” (GPC Biotech AG, priority 2001, dated 2009)

How the values were obtained:
Cdk4/cyclin D1 = target: T1, Cdk4/cyclin D1 (Homo sapiens, UniProt P11802); test: Biochemical kinase assay Cdk4/cyclin D1; conditions: Table 6
T1 construct: made in house; host or cells: Sf9 insect cells
Outline: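 Sf9-expressed Cdk/cyclin heterodimers phosphorylate GST-Rb (residues 379–928, 40 μg) with 50 μM ATP plus [γ-33P]ATP, pH 7.5, 10% DMSO, 15 min at 30 °C. Compounds 1 nM–10 μM. 33P captured on glutathione-sepharose and scintillation-counted; activity relative to DMSO control after EDTA-background subtraction.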

HCT-116 cells = test: Calcein AM viability assay, HCT-116; assay type: cell-based; conditions: Homo sapiens, HCT-116, plus 1 mg/ml alpha acidic glycoprotein and 45 mg/ml human serum albumin; read-out: HCT-116 IC50 Protein adjusted
Outline: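 Cells plated (1,000 HCT-116 in RPMI-1640/10% FCS; 4,000 IMR90 in MEM-alpha/10% FCS), adhered overnight, then given 7 doses of compound at 0-250 nM for 72 h at 37 °C. Viability read by Calcein AM fluorescence (ex 485, em 530) after 75 min; IC50 derived.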

[1] = target: protein kinase C (mixed isozymes); test: Protein kinase C TCA precipitation assay; assay type: biochemical, rat; conditions: Table 5; read-out: PKC IC50
Description: Enzymes: Cdc2/cyclin B was obtained from commercial sources. Cdk2/his-cyclin Eshort was expressed in Sf9 cells. Cdk2/cyclin A, cdk4/cyclin D1, and cdk6/cyclin D2 were expressed in Sf9 cells. Protein kinase A (catalytic subunit, from bovine heart) and protein kinase C (mixed isozymes from rat brain) were obtained from commercial sources.
Protein kinase C and protein kinase A were assayed using a TCA precipitation assay with Histone H1 as a substrate. For protein kinase A, the final assay contained 50 mM Tris, 10 mM MgCl2, 1 mM dithiothreitol, pH 7.5, 12 μM adenosine triphosphate, 10% (v/v) dimethylsulfoxide (from compounds), 20 μg Histone H1, 2 μCi [γ-^32P] adenosine triphosphate, 0.2 U protein kinase A in a 100 μL assay. A protein kinase C assay contained 50 mM Tris, 10 mM MgCl2, 1 mM dithiothreitol, 0.8 mM CaCl2, pH 7.5, 5 μM adenosine triphosphate, 10% (v/v) dimethylsulfoxide (from compounds), 20 μg Histone H1, 2 μCi [γ-^32P] adenosine triphosphate, 0.01 U protein kinase C in a 50 μL assay. The assays were started by the addition of enzyme, allowed to react for 10 min at 30° C., and stopped by adding 0.4 volumes of 237 mM disodium ethylenediamine tetraacetate, 105 mM adenosine triphosphate, pH 8.0. […] The filters were washed ten times with 25% (w/v) trichloroacetic acid, and the amount of incorporated [^32P]phosphate was determined by adding 100 μl Microscint and scintillation counting.

T1 sequence (P11802 whole entry, species assumed): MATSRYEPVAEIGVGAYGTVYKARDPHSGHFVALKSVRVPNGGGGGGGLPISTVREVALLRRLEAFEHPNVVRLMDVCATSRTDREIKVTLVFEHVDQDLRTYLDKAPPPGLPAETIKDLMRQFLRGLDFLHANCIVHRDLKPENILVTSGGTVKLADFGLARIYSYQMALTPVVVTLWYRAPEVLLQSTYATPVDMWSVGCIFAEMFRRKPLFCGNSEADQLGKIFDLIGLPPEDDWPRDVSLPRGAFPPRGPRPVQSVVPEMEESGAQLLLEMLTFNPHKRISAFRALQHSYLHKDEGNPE
T1 sequence (P24385 whole entry partner, species assumed): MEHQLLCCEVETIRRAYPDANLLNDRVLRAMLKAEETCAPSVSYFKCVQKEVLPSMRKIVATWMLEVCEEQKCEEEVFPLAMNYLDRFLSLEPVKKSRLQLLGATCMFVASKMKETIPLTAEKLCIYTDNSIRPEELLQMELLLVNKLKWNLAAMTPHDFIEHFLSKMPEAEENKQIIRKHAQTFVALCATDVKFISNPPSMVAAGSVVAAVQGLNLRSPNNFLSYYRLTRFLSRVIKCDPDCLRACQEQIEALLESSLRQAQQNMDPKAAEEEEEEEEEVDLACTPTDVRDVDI

SMILES | IC50 (Cdk4/cyclin D1) [nM] | IC50 (HCT-116 cells) [nM] | IC50 [1] [µM]
CC(C)N1CCN(C(=O)COc2ccc(-c3[nH]nc4c3C(=O)c3c(NC(=O)NN5CCOCC5)cccc3-4)cc2)CC1.Cl [Compound A37] | < 100 |  | 
CC(C)c1nn(-c2c(Cl)cccc2Cl)c2nc(Cc3ccc(O)c(CN4CCN(C(C)C)CC4)c3)[nH]c(=O)c12 [Compound C] |  | < 1000 | > 10
